# Test results from article PMC3880613 (Journal of medicinal chemistry, 2013).
# Columns and labels:
# PC43-10 cells (hRFC) = conditions: read-out: IC50 growth inhibition PC43-10; cited from earlier work
# FRβ = FRβ (Homo sapiens, UniProt P14207); experiment: FR binding assay, competition with [3H]folic acid on D4 cells; conditions: D4 CHO cells, pH 7.4, [3H]folic acid 50 nM, 0°C; Figure 3, in words
# FRα = FRα (Homo sapiens, UniProt P15328); experiment: FR binding assay, competition with [3H]folic acid on RT16 cells; conditions: RT16 CHO cells, pH 7.4, [3H]folic acid 50 nM, 0°C; Figure 3, in words
# FRα, sequence (P15328 25-257): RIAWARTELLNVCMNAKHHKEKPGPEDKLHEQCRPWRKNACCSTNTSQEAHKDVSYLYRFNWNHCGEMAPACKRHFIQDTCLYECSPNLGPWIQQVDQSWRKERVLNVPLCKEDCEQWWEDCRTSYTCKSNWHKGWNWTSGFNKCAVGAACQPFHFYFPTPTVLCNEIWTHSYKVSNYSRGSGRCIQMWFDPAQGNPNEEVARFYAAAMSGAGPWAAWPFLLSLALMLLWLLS
# [1] = test system: KB human nasopharyngeal carcinoma cells (hRFC/FRα/hPCFT); experiment: Growth inhibition assay, KB human tumor cells; conditions: 96 h, read-out: IC50 growth inhibition KB
# FRβ, sequence (P14207 17-255): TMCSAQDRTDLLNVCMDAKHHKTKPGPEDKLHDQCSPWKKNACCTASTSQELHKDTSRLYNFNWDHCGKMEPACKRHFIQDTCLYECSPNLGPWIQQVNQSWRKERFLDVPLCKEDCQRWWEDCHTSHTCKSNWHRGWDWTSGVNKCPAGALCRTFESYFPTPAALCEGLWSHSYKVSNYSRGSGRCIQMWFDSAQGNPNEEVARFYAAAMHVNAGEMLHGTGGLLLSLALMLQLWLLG
IC50 [1],Structure (SMILES),Relative binding affinity to FRα (folic acid = 1.0) (FRα),further results
> 1 µM,"Nc1nc2[nH]c(CCCCCC(=O)O)cc2c(=O)[nH]1 [7e, 6-(2-Amino-4-oxo-4,7-dihydro-3H-pyrrolo[2,3-d]pyrimidin-6-yl)hexanoic acid]",–,–
> 1 µM,"Nc1nc2[nH]c(CCCCCCC(=O)O)cc2c(=O)[nH]1 [7f, 7-(2-Amino-4-oxo-4,7-dihydro-3H-pyrrolo[2,3-d]pyrimidin-6-yl)heptanoic acid]",–,–
> 1 µM,"Nc1nc2[nH]c(CCCCCCCC(=O)O)cc2c(=O)[nH]1 [7g, 8-(2-Amino-4-oxo-4,7-dihydro-3H-pyrrolo[2,3-d]pyrimidin-6-yl)octanoic acid]",–,–
> 1 µM,"Nc1nc2[nH]c(CCCCCCCCC(=O)O)cc2c(=O)[nH]1 [7h, 9-(2-Amino-4-oxo-4,7-dihydro-3H-pyrrolo[2,3-d]pyrimidin-6-yl)nonanoic acid]",detectable binding,–

# Second part, the compound before the results:
Structure (SMILES),IC50 [1],Relative binding affinity to FRα (folic acid = 1.0) (FRα),further results
Nc1nc2[nH]c(CCCCc3ccc(C(=O)N[C@@H](CCC(=O)O)C(=O)O)cc3)cc2c(=O)[nH]1 [2b],–,–,IC50 (PC43-10 cells (hRFC)): > 1 µM
"Nc1nc2[nH]c(CCCCCCCCC(=O)N[C@@H](CCC(=O)O)C(=O)O)cc2c(=O)[nH]1 [3d, (S)-2-(9-(2-Amino-4-oxo-4,7-dihydro-3H-pyrrolo[2,3-d]pyrimidin-6-yl)nonanamido)pentanedioic acid]",–,approximating those for compounds 2a and 2b,Relative binding affinity to FRβ (folic acid = 1.0) (FRβ): approximating those for compounds 2a and 2b
